Counter-ions that a name gives are not always drawn.
Columns and labels:
[1] = tested on: guinea pig hearts (gene expression); test: RNA sequencing of treated hearts versus control hearts; format: in vivo; conditions: CTP-treated hearts versus controls
Protocol: Libraries were generated with the Illumina Stranded mRNA Library Prep kit (Illumina: 20040534, San Diego, CA, USA), according to the manufacturer’s instructions. RNA was assessed for quality using a Total RNA 15 nt kit (Agilent: DNF-471-33) on an Advanced Analytical 5300 Fragment Analyzer. The RNA concentration was quantified with a Qubit BR RNA assay kit (Invitrogen: Q10211) on a Qubit 4 (Invitrogen: Q33238). Briefly, 50 ng of input RNA was used for each sample. Following adapter ligation, 15 cycles of indexing PCR were completed, using IDT for Illumina RNA UD Indexes (Illumina: 20040553). Library assessment and quantification were performed using Qubit 1x HS DNA (Invitrogen: Q33231) on a Qubit 4 fluorometer and a HS NGS Fragment kit (Agilent: DNF-474-1000). […] The pooled library was loaded at 750 pM, and sequencing was carried out with read lengths of 2 × 101 bp, with an average of ~40 million reads per sample. […]
The raw RNA sequencing (RNA-Seq) paired-end reads for the guinea pig (GP) samples were processed through the Mayo RNA-Seq bioinformatics pipeline, RapMap version 1.0.0. Briefly, the raw reads were trimmed with a base quality cutoff of Phred score Q30 using Trimmomatic. […]
Using the gene-level counts from RapMap, genes differentially expressed between the control and treated groups were assessed using the bioinformatics package edgeR 2.6.2 [37]. […]

guinea pig hearts = test: Optical mapping of voltage and Ca2+ in Langendorff-perfused hearts after daily intraperitoneal injection; conditions: same dosing; for AP and CaT durations compared to control hearts: recovery to 90% of baseline, Figure 4c, e
Protocol: At the end of the study, the GPs were euthanized, the hearts excised and perfused on a Langendorff apparatus with Tyrode’s solution containing (in mM): NaCl (130), KCl (4), MgSO4 (1.2), NaHCO3 (25), Glucose (5), CaCl2 (1.25), and Mannitol (45), and gassed with 95% O2 and 5% CO2, with a pH of 7.0, at 37 °C. The hearts were placed in a custom-designed chamber to subdue the motion artifacts, along with a 15 min blebbistatin (5 µM) in perfusate to minimize the contractions. Bolus injections of voltage (RH237, 25 µL of 2 mg/mL dimethyl sulfoxide (DMSO)) and Ca^2+-indicator dye (Rhod-2/AM, 200 µL of 2 mg/mL DMSO) were injected in the air trap above the aortic cannula. Fluorescence from the epicardium was collected with a camera lens, split with a 570 nm dichroic mirror and focused on two CMOS cameras (Sci-Media UltimaOne, Costa Mesa, CA, USA) capturing the fluorescence emission at 570–595 nm for the cytosolic Ca^2+ and 610–750 nm wavelengths for the voltage, as described in detail previously [33]. After resting sinus rhythm image acquisition, the hearts were paced at 250 ms with programmed stimulation to measure and compare the conduction velocity and transient duration (90%) of various treatment groups.
Adult male GPs (250–350 g) were injected intraperitoneally with amiodarone (80 mg/kg; n = 4) daily for 7 days, CTP–amio (26.3 mg/kg; n = 4) for 5 days, or CTP alone (17.8 mg/kg; n = 4) for 5 days and compared to vehicle-only injected GPs (n = 10). At the end of the injection period, the GPs were euthanized, and their hearts were excised and perfused in a Langendorf apparatus. The hearts were labeled with a voltage-sensitive dye (RH 237) and a Ca^2+ indicator (Rhod-2/AM) with a bolus injection in the perfusate in the air trap above the aortic cannula. Fluorescence images of the heart were focused on 2 CMOS cameras, one to detect voltage and the other intracellular free Ca^2+. The heart rate, action potentials (APs), and intracellular free-Ca^2+ transients (CaT) were measured from 10,000 pixels of the voltage and Ca^2+ CMOS cameras (Supplemental Figure S1). Durations of the APs and CaTs were calculated from the first derivative of the rise of the signals to their recovery to 90% of the baseline.

mice = conditions: biodistribution studies; cited from earlier work
Description: The ability of cationic or hydrophobic cell-penetrating peptides to transduce a wide variety of tissue types in vivo limits their clinical utility because of their lack of cell specificity, leading to a higher chance of off-target adverse side effects. Phage display using libraries of various lengths and various bacteriophage strains have been successfully utilized to identify tissue-specific penetrating peptides. In our prior work, we employed a combinatorial in vitro and in vivo M13 phage display methodology to identify a 12-amino-acid, synthetic, mildly bas ...

Compound	expression of α-adrenergic receptors [1]	expression of β-adrenergic receptors [1]	AP and CaT durations compared to control hearts (guinea pig hearts)	crossing of the blood–brain barrier (mice)	route of excretion (mice)	heart rate during sinus rhythm compared to control hearts (guinea pig hearts; Figure 4a)	conduction velocity (CV) of the APs and CaT compared to control hearts (guinea pig hearts; Figure 4b, d)	calcium transients compared to the controls (guinea pig hearts; Rhod-2/AM fluorescence)
NH2-APWHLSSQYSRT-COOH (H-APWHLSSQYSRT-OH) [CTP, 12-amino-acid, synthetic, mildly basic, non-naturally occurring cell-penetrating peptide identified by phage display]	upregulation	downregulation	decreased	does not cross	predominantly by a renal followed by a hepatobiliary mechanism	–	–	–
CCCCc1oc2ccccc2c1C(=O)c1cc(I)c(OCCN(CC)CC)c(I)c1 [amiodarone, Amiodarone hydrochloride]	–	–	increased	–	–	significantly decreased	decreased	significantly decreased
